Results published in patent US11312722B2, “Hsp90 inhibitors and uses thereof” (TRUSTEES OF BOSTON UNIVERSITY, priority 2019, dated 2022).
Read-outs that look alike come from different tables or passages of the source.

Tests used:
[1] = biological target: Hsp90 (C. albicans whole cell lysate) (Candida albicans (strain SC5314 / ATCC MYA-2876) (Yeast), UniProt P46598); assay: biochemical; type: binding; conditions: for C. alb Active (biochemical): Yes/No call
Procedure: All analogs were assessed for Hsp90 binding affinity using a fluorescence polarization (FP)-based equilibrium competition assay in fungal and human whole cell lysates. […] Using lysates, the relative potency and selectivity for fungal Hsp90 was measured versus the entire ensemble of human Hsp90 isoforms in microplate format using small amounts of test materials. […] Thermal shift assays were performed under saturating ligand conditions, i.e. equimolar concentrations (10 μM) of protein and ligand. As a result, they provided qualitative evidence of target binding, but not a quantitative measurement of ligand affinity. For quantitation, a ligand dissociation constant (Ki) for key compounds was also determined using purified NBDs in FP assays and KD measurements were made by surface plasmon resonance (SPR) using a Biacore instrument. Finally, all analogs were assessed for whole cell antifungal activity against the pathogens C. albicans and C. neoformans.
FP assays. Whole cell lysates were prepared for FP assays as described previously. Total protein concentration of human and yeast lysates was determined by Bradford assay. […] Serial dilutions of test Hsp90 inhibitors were then assayed under these same conditions to monitor loss of fluorescence polarization as an indicator of probe displacement from Hsp90. […] Titrations of test compound in 25 μL of binding buffer (supplemented with 0.1 mg/mL bovine gamma globulin), were mixed with an equal volume of freshly prepared whole-cell lysate spiked with Cy3-GdA (0.1 nM). Plates were incubated at room temperature for 4.5 h to achieve equilibrium binding for the geldanamycin-based probe. […] Non-linear 4-parameter curve fitting of raw displacement data was performed in GraphPad Prism 5.0 to determine EC50 values as a measure of relative Hsp90-binding affinity. Results were normalized to the value determined for GdA in lysate of each cell type.
Statistical methods. […] In calculating the error of selectivity determinations, the fractional error of measurements in each species was summed to yield a composite error for the derived ratio.

[2] = system: C. neoformans (Strain H99); assay: Antifungal sensitivity testing (MIC), C. neoformans H99; type: cell-based; conditions: for MIC80 / MIC90: Cryptococcus neoformans; for MIC80: read-out: C. neo MIC80; for MIC90: read-out: C. neo MIC90
Procedure: Color scale bar: no growth inhibition (green) to complete inhibition (black). Each shaded box represents the mean of technical duplicates. The experiment was repeated as an independent biological replicate to confirm results.
Minimum inhibitory concentration (MIC) value for compounds against C. neoformans (Strain H99) was determined in dose-response format, in technical duplicate. Experiments were conducted in RPMI medium at 37° C. for 48 h. Relative viable cell number was measured by standard dye reduction (resazurin) assay.
Yeast strains and culture conditions. Strains used in this study were C. albicans CaCi2 (clinical isolate 2), [58] SC5314, [59] and C. neoformans H99. […] Active cultures were maintained on solid (2% agar) yeast extract peptone (YPD, 1% yeast extract, 2% bactopeptone, 2% glucose) at 4° C. for no more than one month.
Antifungal sensitivity testing. […] Each compound was tested in duplicate in at least two independent experiments. […] Plates were photographed after 24 h of incubation at 30° C.

[3] = FP competition, whole cell lysate, duplicate, screening experiment, read-out: C. albicans EC50

Row | C. alb Active (biochemical) [1] | EC50 ([1]; read-out: C. alb EC50) | MIC80 [2] | MIC90 [2] | SMILES | further results
1 | Yes | 904 nM |  |  | Cc1ccccc1-c1cc(Nc2cc(O)cc(O)c2C(=O)N2Cc3ccc(F)cc3C2)n(C)n1 [ACSM01135] | 
2 | Yes |  | > 25 µM | > 25 µM | CC(C)(C)n1nc(-c2ccccc2)cc1Nc1cc(O)cc(O)c1C(=O)N1Cc2cn[nH]c2C1 [Compound 95, 5-((1-tert-Butyl-3-phenyl-1H-pyrazol-5-yl)amino)-4-(1H,4H,5H,6H-pyrrolo[3,4-c]pyrazole-5-carbonyl)benzene-1,3-diol] | 
3 | Yes |  | > 25 µM | > 25 µM | Cn1nc(-c2cccc(C(F)(F)F)c2)cc1Nc1cc(O)cc(O)c1C(=O)N1Cc2ccccc2C1 [Compound 115, 4-(2,3-Dihydro-1H-isoindole-2-carbonyl)-5-((1-methyl-3-(3-(trifluoromethyl)phenyl)-1H-pyrazol-5-yl)amino)benzene-1,3-diol] | 
4 | Yes |  | > 25 µM | > 25 µM | Cc1ccc(-c2cc(Nc3cc(O)cc(O)c3C(=O)N3Cc4cn[nH]c4C3)n(C)n2)cc1 [Compound 120, 5-((1-Methyl-3-(4-methylphenyl)-1H-pyrazol-5-yl)amino)-4-(1H,4H,5H,6H-pyrrolo[3,4-c]pyrazole-5-carbonyl)benzene-1,3-diol] | 
5 | Yes |  | > 25 µM | > 25 µM | Cn1nc(C2CCCCC2)cc1Nc1cc(O)cc(O)c1C(=O)N1Cc2cccnc2C1 [Compound 104, 5-((3-Cyclohexyl-1-methyl-1H-pyrazol-5-yl)amino)-4-(5H,6H,7H-pyrrolo[3,4-b]pyridine-6-carbonyl)benzene-1,3-diol] | 
6 | Yes |  | > 25 µM | > 25 µM | Cn1nc(-c2ccccc2)cc1Nc1cc(O)cc(O)c1C(=O)N1Cc2cccnc2C1 [Compound 92, 5-((1-Methyl-3-phenyl-1H-pyrazol-5-yl)amino)-4-(5H,6H,7H-pyrrolo[3,4-b]pyridine-6-carbonyl)benzene-1,3-diol] | 
7 | Yes |  | > 25 µM | > 25 µM | Cn1nc(-c2cccc(C(F)(F)F)c2)cc1Nc1cc(O)cc(O)c1C(=O)N1Cc2cccnc2C1 [Compound 116, 5-((1-Methyl-3-(3-(trifluoromethyl)phenyl)-1H-pyrazol-5-yl)amino)-4-(5H,6H,7H-pyrrolo[3,4-b]pyridine-6-carbonyl)benzene-1,3-diol] | 
8 | Yes |  | > 25 µM | > 25 µM | COc1ccc(-c2cc(Nc3cc(O)cc(O)c3C(=O)N3Cc4cn[nH]c4C3)n(C)n2)cc1 [Compound 123, 5-((3-(4-Methoxyphenyl)-1-methyl-1H-pyrazol-5-yl)amino)-4-(1H,4H,5H,6H-pyrrolo[3,4-c]pyrazole-5-carbonyl)benzene-1,3-diol] | 
9 | Yes |  | > 25 µM | > 25 µM | COc1ccc(-c2cc(Nc3cc(O)cc(O)c3C(=O)N3Cc4cccnc4C3)n(C)n2)cc1 [Compound 122, 5-((3-(4-Methoxyphenyl)-1-methyl-1H-pyrazol-5-yl)amino)-4-(5H,6H,7H-pyrrolo[3,4-b]pyridine-6-carbonyl)benzene-1,3-diol] | 
10 | Yes | 1120 nM |  |  | Cn1nc(-c2cc(F)ccc2F)cc1Nc1cc(O)cc(O)c1C(=O)N1Cc2ccccc2C1 [ACSM01270] | 
11 | Yes | 6200 nM |  |  | Cc1cccc(-c2cc(Nc3cc(O)cc(O)c3C(=O)N3Cc4ccccc4C3)n(C)n2)c1C [ACSM01272] | 
12 | Yes | 2210 nM |  |  | Cn1nc(-c2cccc(F)c2F)cc1Nc1cc(O)cc(O)c1C(=O)N1Cc2ccccc2C1 [ACSM01269] | 
13 | Yes | 1680 nM |  |  | Cc1ccc(F)c(-c2cc(Nc3cc(O)cc(O)c3C(=O)N3Cc4ccccc4C3)n(C)n2)c1 [ACSM01268] | 
14 | Yes |  | > 25 µM | > 25 µM | Cc1ccccc1-c1cc(Nc2cc(O)cc(O)c2C(=O)N2Cc3cccnc3C2)n(C)n1 [Compound 107, 5-((1-Methyl-3-(2-methylphenyl)-1H-pyrazol-5-yl)amino)-4-(5H,6H,7H-pyrrolo[3,4-b]pyridine-6-carbonyl)benzene-1,3-diol] | 
15 | Yes |  | > 25 µM | > 25 µM | Cc1cccc(-c2cc(Nc3cc(O)cc(O)c3C(=O)N3Cc4cccnc4C3)n(C)n2)c1 [Compound 110, 5-((1-Methyl-3-(3-methylphenyl)-1H-pyrazol-5-yl)amino)-4-(5H,6H,7H-pyrrolo[3,4-b]pyridine-6-carbonyl)benzene-1,3-diol] | 
16 | Yes |  | > 25 µM | > 25 µM | Cc1ccc(-c2cc(Nc3cc(O)cc(O)c3C(=O)N3Cc4ccccc4C3)n(C)n2)cc1 [Compound 118, 4-(2,3-Dihydro-1H-isoindole-2-carbonyl)-5-((1-methyl-3-(4-methylphenyl)-1H-pyrazol-5-yl)amino)benzene-1,3-diol] | 
17 | Yes |  | > 25 µM | > 25 µM | Cn1nc(-c2cccc(C(F)(F)F)c2)cc1Nc1cc(O)cc(O)c1C(=O)N1Cc2cn[nH]c2C1 [Compound 117, 5-((1-Methyl-3-(3-(trifluoromethyl)phenyl)-1H-pyrazol-5-yl)amino)-4-(1H,4H,5H,6H-pyrrolo[3,4-c]pyrazole-5-carbonyl)benzene-1,3-diol] | 
18 | Yes |  | > 25 µM | > 25 µM | Cc1cccc(-c2cc(Nc3cc(O)cc(O)c3C(=O)N3Cc4ccccc4C3)n(C)n2)c1 [Compound 109, 4-(2,3-Dihydro-1H-isoindole-2-carbonyl)-5-((1-methyl-3-(3-methylphenyl)-1H-pyrazol-5-yl)amino)benzene-1,3-diol] | 
19 | Yes | 1250 nM |  |  | Cn1nc(-c2cccc(F)c2)cc1Nc1cc(O)cc(O)c1C(=O)N1Cc2ccccc2C1 [ACSM01345] | 
20 |  |  |  |  | COc1ccc(Cn2nc(C)cc2Nc2cc(O)cc(O)c2C(=O)N(C)Cc2ccccc2)cc1 [Compound 37, N-Benzyl-2,4-dihydroxy-6-((1-((4-methoxyphenyl)methyl)-3-methyl-1H-pyrazol-5-yl)amino)-N-methylbenzamide] | EC50 [1, 3]: > 6000 nM
21 | Yes |  |  |  | Cc1cccc(-c2cc(Nc3cc(O)cc(O)c3C(=O)N3Cc4ccccc4C3)n(C)n2)c1F [ACSM01273] | 
22 | Yes |  | > 25 µM | > 25 µM | CC(C)(C)n1nc(-c2ccccc2)cc1Nc1cc(O)cc(O)c1C(=O)N1Cc2cccnc2C1 [Compound 94, 5-((1-tert-Butyl-3-phenyl-1H-pyrazol-5-yl)amino)-4-(5H,6H,7H-pyrrolo[3,4-b]pyridine-6-carbonyl)benzene-1,3-diol] | 
23 | Yes |  | > 25 µM | > 25 µM | Cn1nc(-c2ccccc2)cc1Nc1cc(O)cc(O)c1C(=O)N1Cc2cn[nH]c2C1 [Compound 93, 5-((1-Methyl-3-phenyl-1H-pyrazol-5-yl)amino)-4-(1H,4H,5H,6H-pyrrolo[3,4-c]pyrazole-5-carbonyl)benzene-1,3-diol] | 
24 |  |  | > 25 µM | > 25 µM | COc1ccc(-c2cc(Nc3cc(O)cc(O)c3C(=O)N3Cc4ccccc4C3)n(C)n2)cc1 [Compound 121, 4-(2,3-Dihydro-1H-isoindole-2-carbonyl)-5-((3-(4-methoxyphenyl)-1-methyl-1H-pyrazol-5-yl)amino)benzene-1,3-diol] | C. neo Active (cells) ([2]; Yes/No call): No
25 | Yes | 4170 nM |  |  | Cn1nc(-c2cccc(Cl)c2)cc1Nc1cc(O)cc(O)c1C(=O)N1Cc2ccccc2C1 [ACSM01362] | 

Row | SMILES | C. alb Active (biochemical) [1] | EC50 ([1]; read-out: C. alb EC50) | MIC80 [2] | MIC90 [2] | further results
26 | COc1cccc(-c2cc(Nc3cc(O)cc(O)c3C(=O)N3Cc4cccc(F)c4C3)n(C)n2)c1 [ACSM01130] | Yes | 5820 nM |  |  | C. neo MIC80 [2]: >50 µM; C. neo MIC90 [2]: >50 µM
27 | COc1ccc(Cn2nc(C)cc2Nc2cc(O)cc(O)c2C(=O)N(C)CC2CC2)cc1 [Compound 30, N-(Cyclopropylmethyl)-2,4-dihydroxy-6-((1-((4-methoxyphenyl)methyl)-3-methyl-1H-pyrazol-5-yl)amino)-N-methylbenzamide] | No | > 9000 nM | > 25 µM | > 25 µM | EC50 [1, 3]: > 9000 nM
